Experimental data taken from patent publication US4332820A, “Substituted benzonitriles having antiviral activity” (The Dow Chemical Company, priority 1980, dated 1982).
In brackets after ≈: the same amount, converted by molar mass.

What was measured:
[1] = Cytotoxicity in tissue culture (HeLa monolayers); type: cell-based; conditions: human; HeLa cells; observed at 48 and 72 hours post-treatment; read-out: Cytotoxicity (concentration of the compound found to be toxic to the cell)
[2] = test system: rhinovirus type 1A (RV-1A); assay: Tissue culture antiviral testing, RV-1A (cytopathic effect, HeLa cells); type: cell-based; conditions: for EC50: Enterovirus, HeLa cells, NA = not active at the standard test conditions, read-out: Lowest concentration of the compound necessary to cause a 50 percent reduction in cytopathic effect
[3] = test system: rhinovirus type 2 (RV-2); assay: Tissue culture antiviral testing, RV-2 (cytopathic effect, HeLa cells); type: cell-based; conditions: for EC50: Enterovirus, HeLa cells, NA = not active at the standard test conditions, read-out: Lowest concentration of the compound necessary to cause a 50 percent reduction in cytopathic effect
[4] = test system: Coxsackie A21 virus (Cox A21); assay: Tissue culture antiviral testing, Cox A21 (cytopathic effect, HeLa cells); type: cell-based; conditions: for EC50: HeLa cells, NA = not active at the standard test conditions, read-out: Lowest concentration of the compound necessary to cause a 50 percent reduction in cytopathic effect
[5] = test system: rhinovirus type 5 (RV-5); assay: Tissue culture antiviral testing, RV-5 (cytopathic effect, HeLa cells); type: cell-based; conditions: for EC50: Enterovirus, HeLa cells, read-out: Lowest concentration of the compound necessary to cause a 50 percent reduction in cytopathic effect
[6] = test system: rhinovirus type 8 (RV-8); assay: Tissue culture antiviral testing, RV-8 (cytopathic effect, HeLa cells); type: cell-based; conditions: for EC50: Enterovirus, HeLa cells, read-out: Lowest concentration of the compound necessary to cause a 50 percent reduction in cytopathic effect
[7] = test system: rhinovirus type 64 (RV-64); assay: Tissue culture antiviral testing, RV-64 (cytopathic effect, HeLa cells); type: cell-based; conditions: for EC50: Enterovirus, HeLa cells, NA = not active at the standard test conditions, read-out: Lowest concentration of the compound necessary to cause a 50 percent reduction in cytopathic effect
[8] = test system: Cox A21; assay: Single Oral Dose test in mice challenged with Cox A21; type: in vivo, Swiss male mice; conditions: po, 600 mg/kg, 3 h
[9] = test system: Coxsackie A21 virus; assay: Continuous Oral Feeding test in mice challenged with Coxsackie A21; type: in vivo; conditions: for X^2 (Continuous Oral Feeding, chi-square of deaths): 0.06 % in diet, 240 h, 0.06 % strength

SMILES | MCC [1] | EC50 [2] | EC50 [3] | EC50 [4] | EC50 [5] | EC50 [6] | EC50 [7] | further results
N#Cc1cc([N+](=O)[O-])ccc1Oc1cc(Cl)ccc1Cl [Example 23, 2-(2,5-Dichlorophenoxy)-5-nitrobenzonitrile] | > 50 µg/mL | 3.12 µg/mL (≈ 10.1 µM) | < 3.12 µg/mL | 6.25 µg/mL (≈ 20.2 µM) | ≤ 6.25 µg/mL | < 6.25 µg/mL | 3.12 µg/mL (≈ 10.1 µM) | –
N#Cc1cc([N+](=O)[O-])ccc1Oc1cc(Cl)c(Cl)c(Cl)c1 [Example 17, 2-(3,4,5-Trichlorophenoxy)-5-nitrobenzonitrile] | 10 µg/mL | 2.5 µg/mL (≈ 7.28 µM) | 1.25 µg/mL (≈ 3.64 µM) | 1.25 µg/mL (≈ 3.64 µM) | – | – | – | –
N#Cc1cc([N+](=O)[O-])ccc1Oc1ccc(Cl)c(Cl)c1Cl [Example 29, 2-(2,3,4-Trichlorophenoxy)-5-nitrobenzonitrile] | > 20 µg/mL | ~10 µg/mL (≈ 29.1 µM) | 1.25 µg/mL (≈ 3.64 µM) | ~5 µg/mL (≈ 14.6 µM) | – | – | – | –
N#Cc1cc([N+](=O)[O-])ccc1Sc1ccc(Cl)c(Cl)c1 [Example 20, 2-((3,4-Dichlorophenyl)thio)-5-nitrobenzonitrile] | 10 µg/mL | – | 2.5 µg/mL (≈ 7.69 µM) | ~2.5 µg/mL (≈ 7.69 µM) | – | – | – | –
N#Cc1cc([N+](=O)[O-])ccc1Oc1ccc(C(=O)c2ccccc2)cc1 [Example 11, 2-(4-Benzoylphenoxy)-5-nitrobenzonitrile] | > 100 µg/mL | – | ~100 µg/mL (≈ 290 µM) | 12.5 µg/mL (≈ 36.3 µM) | – | – | – | X^2 (Single Oral Dose, chi-square of deaths vs virus control) [8]: 0.64
N#Cc1cc([N+](=O)[O-])ccc1Oc1c(Cl)cccc1Cl [Example 24, 2-(2,6-Dichlorophenoxy)-5-nitrobenzonitrile] | > 50 µg/mL | 3.12 µg/mL (≈ 10.1 µM) | ≤ 3.12 µg/mL | 12.5 µg/mL (≈ 40.4 µM) | 3.12 µg/mL (≈ 10.1 µM) | ≤ 3.12 µg/mL | 3.12 µg/mL (≈ 10.1 µM) | –
N#Cc1cc([N+](=O)[O-])ccc1Oc1cc(Cl)cc(Cl)c1Cl [Example 30, 2-(2,3,5-Trichlorophenoxy)-5-nitrobenzonitrile] | > 20 µg/mL | 2.5 µg/mL (≈ 7.28 µM) | 2.5 µg/mL (≈ 7.28 µM) | – | – | – | – | –
N#Cc1cc([N+](=O)[O-])ccc1Oc1ccc(C(F)(F)F)cc1 [Example 14, 2-((4-Trifluoromethyl)phenoxy)-5-nitrobenzonitrile] | ≥ 50 µg/mL | 3.12 µg/mL (≈ 10.1 µM) | 0.312 µg/mL (≈ 1.01 µM) | 0.625 µg/mL (≈ 2.03 µM) | 2.5 µg/mL (≈ 8.11 µM) | 0.312 µg/mL (≈ 1.01 µM) | 0.625 µg/mL (≈ 2.03 µM) | –
CN(C)S(=O)(=O)c1ccc(Oc2ccc([N+](=O)[O-])cc2C#N)cc1 [Example 9, N,N-Dimethyl-4-(2-cyano-4-nitrophenoxy)benzenesulfonamide] | > 100 µg/mL | – | – | < 6.25 µg/mL | – | – | – | X^2 (Continuous Oral Feeding, chi-square of deaths) [9]: 9.03
N#Cc1cc(Oc2ccc(Cl)c(Cl)c2)ccc1[N+](=O)[O-] [5-(3,4-dichlorophenoxy)-2-nitrobenzonitrile, reference compound] | – | – | – | – | – | – | – | concentration required to produce a 50% reduction in cytopathic effect, compared with 2-(3,4-dichlorophenoxy)-5-nitrobenzonitrile ([2]; in words): higher concentrations; concentration required to produce a 50% reduction in cytopathic effect, compared with 2-(3,4-dichlorophenoxy)-5-nitrobenzonitrile ([3]; in words): higher concentrations; concentration required to produce a 50% reduction in cytopathic effect, compared with 2-(3,4-dichlorophenoxy)-5-nitrobenzonitrile ([4]; in words): higher concentrations; antiviral activity at the test concentrations employed ([5]; in words): not active; antiviral activity at the test concentrations employed ([6]; in words): not active; antiviral activity at the test concentrations employed ([7]; in words): not active; antiviral activity in the "Continuous Oral Feeding" test ([9]; in words, 95% confidence level): failed to exhibit antiviral activity
N#Cc1cc([N+](=O)[O-])ccc1Oc1c(Cl)ccc(Cl)c1Cl [Example 31, 2-(2,3,6-Trichlorophenoxy)-5-nitrobenzonitrile] | > 20 µg/mL | 2.5 µg/mL (≈ 7.28 µM) | 1.25 µg/mL (≈ 3.64 µM) | 5 µg/mL (≈ 14.6 µM) | 3.12 µg/mL (≈ 9.1 µM) | < 3.12 µg/mL | 3.12 µg/mL (≈ 9.1 µM) | –
N#Cc1cc([N+](=O)[O-])ccc1Oc1cc(Cl)cc(Cl)c1 [Example 25, 2-(3,5-Dichlorophenoxy)-5-nitrobenzonitrile] | > 50 µg/mL | 6.25 µg/mL (≈ 20.2 µM) | 3.12 µg/mL (≈ 10.1 µM) | – | 6.25 µg/mL (≈ 20.2 µM) | 3.12 µg/mL (≈ 10.1 µM) | 25 µg/mL (≈ 80.9 µM) | –
N#Cc1cc([N+](=O)[O-])ccc1Oc1c(F)c(F)cc(F)c1F [Example 18, 2-(2,3,5,6-Tetrafluorophenoxy)-5-nitrobenzonitrile] | 12.5 µg/mL | 3.12 µg/mL (≈ 10 µM) | < 3.12 µg/mL | 3.12 µg/mL (≈ 10 µM) | 1.25 µg/mL (≈ 4 µM) | 1.25 µg/mL (≈ 4 µM) | 0.312 µg/mL (≈ 1 µM) | –
CSc1ccc(Oc2ccc([N+](=O)[O-])cc2C#N)cc1 [Example 6, 2-(4-(Methylthio)phenoxy)-5-nitrobenzonitrile] | 100 µg/mL | – | ≤ 6.25 µg/mL | < 6.25 µg/mL | – | – | – | X^2 (Single Oral Dose, chi-square of deaths vs virus control) [8]: 0.609; X^2 (Continuous Oral Feeding, chi-square of deaths) [9]: 6.91
